Measurements: patent US11834432B2, “Substituted amino six-membered nitric heterocyclic ring compound and preparation and use thereof” (SHANGHAI INSTITUTE OF MATERIA MEDICA, CHINESE ACADEMY OF …, priority 2016, dated 2023)
pIC50: −log10 of the molar value. “And” between values parts separate entries of the source, which are not always exact repeats. Equal entries are not always repeated.

Key:
[1] = system: SNU16 cells; assay: Inhibition of proliferation of SNU16 cells (CCK-8); type: cell-based; details: Homo sapiens, SNU-16, 72 h
Protocol: The inhibitory effect on proliferation of SNU16 cells of a compound was examined by CCK-8 Cell Counting Kit (Dojindo). The steps are as follows: SNUI 6 cells at Logarithmic growth phase were seeded in a 96-well culture plate at appropriate density, 90 ul for each well. After cultured overnight, different concentrations of drugs were added and treated for 72 h, while solvent control well was set (negative control). After 72 h, the influence of the compound on the proliferation of cells was observed by CCK-8 cell counting kit (Dojindo). 10 μL of CCK-8 reagent was added to each well. After incubated for 2-4 hours in a 37° C. incubator, the plate was read with SpectraMax 190 microplate reader at wavelength 450 nm.
The IC50 values were obtained by four-parameter regression analysis using the software supplied with the microplate reader.

[2] = Pharmacokinetics in rats; type: in vivo; details: male, rat, plasma, SD rats
Protocol: Seven SD rats, male, weighing 200-220 g, were randomly divided into two groups, 4 or 3 in each group. Compound S10 was administrated by intragastric or intravenous administration.
Rats were fasted for 12 h before test, and had access to water ad libitum. The rats were uniformly fed 2 h after administration of.
Blood sample time point and sample preparation:
intragastric administration: 0.25, 0.5, 1.0, 2.0, 4.0, 6.0, 8.0 and 24 h after administration;
intravenous administration: 5 min, 0.25, 0.5, 1.0, 2.0, 4.0, 6.0, 8.0 and 24 h after administration;
0.3 mL of venous blood was collected at the above time points via the rat eye vein venous plexus, placed in a heparinized test tube, and centrifuged at 11000 rpm for 5 min, and plasma was separated and frozen in a −20° C. refrigerator.
S10 in rat plasma was determined by LC/MS/MS.
The pharmacokinetic parameters after administration were calculated by a non-compartmental model of WinNonlin 6.3 software (Pharsight, USA).
The peak concentration Cmax and the peak time Tmax are measured values; The area under the curve of the drug-time AUC0-t value: calculated by the trapezoidal method; AUC0-∞=AUC0-t+Ct/ke, Ct is the blood concentration of drug at the last measurable time point;
ke is the elimination rate constant;
Elimination half-life t1/2=0.693/ke;
Clearance rate CL=D/AUC0-∞;
Volume of steady state distribution Vss=CL×MRT;

[3] = system: human lung cancer NCI-H1581 subcutaneously transplanted tumor; assay: Growth of subcutaneously transplanted tumor in human lung cancer NCI-H1581 nude mice
Protocol: The cell strain was inoculated in the right axilla of the nude mice, and the amount of cells inoculated was 5×10^6/mouse to form transplanted tumor, which was directly inoculated and used.
The tumor tissue in the prosperous growth period was cut into 1.5 mm^3, and inoculated subcutaneously in the right axilla of the nude mice under aseptic conditions. The diameter of the transplanted tumor in the nude mice was measured with a vernier caliper, and the animals were randomly grouped when the average volume of tumors was about 150-160 mm^3. […] The solvent control group was given an equal amount of water for injection. The diameter of the transplanted tumor was measured twice a week during the entire experiment, and the body weight of the mice was also weighed. The calculation formula of tumor volume (TV) is: TV=1/2×a×b^2, where a and b respectively represent the length and width of the tumor. The relative tumor volume (RTV) was calculated based on the measured results and the formula was: RTV=Vt/V0, where V0 is the tumor volume measured at grouping and dosing (d0), and Vt is the tumor volume at each measurement.

[4] = target: c-Met (Homo sapiens (Human), UniProt P08581); assay: In vitro tyrosine kinase inhibition screening (ELISA); type: biochemical; details: 1 h
Sequence of c-Met (P08581 25-1390): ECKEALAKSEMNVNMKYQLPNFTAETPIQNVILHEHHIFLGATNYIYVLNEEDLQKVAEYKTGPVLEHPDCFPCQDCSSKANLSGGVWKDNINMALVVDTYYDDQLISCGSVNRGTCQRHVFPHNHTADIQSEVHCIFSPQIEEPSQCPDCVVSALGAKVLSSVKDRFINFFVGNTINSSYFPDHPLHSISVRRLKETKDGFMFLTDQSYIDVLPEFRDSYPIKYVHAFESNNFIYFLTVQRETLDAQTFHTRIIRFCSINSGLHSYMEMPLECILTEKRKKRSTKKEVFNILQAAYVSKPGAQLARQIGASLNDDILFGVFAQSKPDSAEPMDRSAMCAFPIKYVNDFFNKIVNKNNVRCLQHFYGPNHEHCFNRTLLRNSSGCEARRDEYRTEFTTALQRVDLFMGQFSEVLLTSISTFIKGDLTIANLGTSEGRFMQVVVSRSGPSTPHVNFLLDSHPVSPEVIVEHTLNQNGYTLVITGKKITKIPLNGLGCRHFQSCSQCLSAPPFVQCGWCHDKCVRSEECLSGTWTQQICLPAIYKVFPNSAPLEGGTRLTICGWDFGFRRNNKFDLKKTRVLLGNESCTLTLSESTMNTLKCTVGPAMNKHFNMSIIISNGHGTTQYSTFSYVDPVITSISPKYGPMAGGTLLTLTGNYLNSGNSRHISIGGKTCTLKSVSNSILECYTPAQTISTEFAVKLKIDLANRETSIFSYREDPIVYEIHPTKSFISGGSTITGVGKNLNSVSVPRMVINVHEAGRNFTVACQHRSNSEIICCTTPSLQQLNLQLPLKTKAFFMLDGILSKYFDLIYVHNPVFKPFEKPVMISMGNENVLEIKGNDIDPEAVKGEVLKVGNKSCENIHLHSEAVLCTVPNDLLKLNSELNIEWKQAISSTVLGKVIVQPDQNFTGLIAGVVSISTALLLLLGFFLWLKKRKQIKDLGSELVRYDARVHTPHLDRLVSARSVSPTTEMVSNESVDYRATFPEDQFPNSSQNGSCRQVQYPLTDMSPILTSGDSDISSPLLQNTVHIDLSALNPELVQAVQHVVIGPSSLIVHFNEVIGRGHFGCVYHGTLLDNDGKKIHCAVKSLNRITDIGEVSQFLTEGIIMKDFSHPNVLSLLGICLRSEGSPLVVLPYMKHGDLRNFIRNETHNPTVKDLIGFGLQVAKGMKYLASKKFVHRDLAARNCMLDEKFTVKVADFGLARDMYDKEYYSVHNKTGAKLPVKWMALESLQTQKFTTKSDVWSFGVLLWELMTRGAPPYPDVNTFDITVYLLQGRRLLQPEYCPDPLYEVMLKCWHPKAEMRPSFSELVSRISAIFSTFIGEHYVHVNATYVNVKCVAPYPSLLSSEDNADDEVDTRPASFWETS
Protocol: (§1) 4. In Vitro Screening Test on Tyrosine Kinase Activity Inhibition Screening method: Enzyme-linked immunosorbent assay (ELISA) tyrosine kinase: Enzyme spectrum Time of action: 1 h

[5] = target: c-Src (Homo sapiens (Human), UniProt P12931); assay: as above; type: biochemical; details: 1 h
Protocol: as §1

[6] = target: EPH-A2 (Homo sapiens (Human), UniProt P29317); assay: as above; type: biochemical; details: 1 h
Protocol: as §1

[7] = target: ABL (Homo sapiens (Human), UniProt P00519); assay: as above; type: biochemical; details: 1 h
Protocol: as §1

[8] = target: PDGFR-α (Homo sapiens (Human), UniProt P16234); assay: as above; type: biochemical; details: 1 h
Sequence of PDGFR-α (P16234 24-1089): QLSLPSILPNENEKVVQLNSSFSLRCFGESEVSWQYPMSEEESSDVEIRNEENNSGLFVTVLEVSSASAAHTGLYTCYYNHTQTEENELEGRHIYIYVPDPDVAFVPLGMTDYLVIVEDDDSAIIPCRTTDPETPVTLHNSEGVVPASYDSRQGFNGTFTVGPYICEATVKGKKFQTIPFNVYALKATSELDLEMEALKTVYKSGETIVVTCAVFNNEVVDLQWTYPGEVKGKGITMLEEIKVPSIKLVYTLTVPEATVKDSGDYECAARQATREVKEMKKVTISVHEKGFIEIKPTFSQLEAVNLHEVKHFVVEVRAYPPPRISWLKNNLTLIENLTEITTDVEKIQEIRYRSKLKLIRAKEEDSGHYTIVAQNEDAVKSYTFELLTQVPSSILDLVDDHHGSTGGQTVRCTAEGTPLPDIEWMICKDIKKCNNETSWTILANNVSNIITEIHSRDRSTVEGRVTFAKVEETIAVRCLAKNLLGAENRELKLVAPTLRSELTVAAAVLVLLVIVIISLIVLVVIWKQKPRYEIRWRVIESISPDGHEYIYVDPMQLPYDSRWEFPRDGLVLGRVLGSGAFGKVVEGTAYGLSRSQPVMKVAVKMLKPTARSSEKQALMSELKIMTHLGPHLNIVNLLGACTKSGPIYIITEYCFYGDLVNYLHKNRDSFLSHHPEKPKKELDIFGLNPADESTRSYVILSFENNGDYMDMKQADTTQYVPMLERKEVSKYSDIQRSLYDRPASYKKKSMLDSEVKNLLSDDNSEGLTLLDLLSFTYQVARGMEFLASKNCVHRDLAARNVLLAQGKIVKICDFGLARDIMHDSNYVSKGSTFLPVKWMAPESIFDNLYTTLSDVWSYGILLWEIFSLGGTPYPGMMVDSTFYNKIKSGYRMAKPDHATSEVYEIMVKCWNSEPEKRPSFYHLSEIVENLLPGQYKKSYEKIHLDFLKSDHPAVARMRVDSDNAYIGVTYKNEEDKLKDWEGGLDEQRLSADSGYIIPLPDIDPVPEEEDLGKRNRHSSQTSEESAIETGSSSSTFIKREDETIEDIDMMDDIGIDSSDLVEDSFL
Protocol: as §1

[9] = target: RET (Homo sapiens (Human), UniProt P07949); assay: as above; type: biochemical; details: 1 h
Protocol: as §1

[10] = target: ErbB2 (Homo sapiens (Human), UniProt P04626); assay: as above; type: biochemical; details: 1 h
Protocol: as §1

[11] = target: ErbB4 (Homo sapiens (Human), UniProt Q15303); assay: as above; type: biochemical; details: 1 h
Protocol: as §1

[12] = target: VEGFR-2 (Homo sapiens (Human), UniProt P35968); assay: as above; type: biochemical; details: 1 h
Sequence of VEGFR-2 (P35968 20-1356, species assumed): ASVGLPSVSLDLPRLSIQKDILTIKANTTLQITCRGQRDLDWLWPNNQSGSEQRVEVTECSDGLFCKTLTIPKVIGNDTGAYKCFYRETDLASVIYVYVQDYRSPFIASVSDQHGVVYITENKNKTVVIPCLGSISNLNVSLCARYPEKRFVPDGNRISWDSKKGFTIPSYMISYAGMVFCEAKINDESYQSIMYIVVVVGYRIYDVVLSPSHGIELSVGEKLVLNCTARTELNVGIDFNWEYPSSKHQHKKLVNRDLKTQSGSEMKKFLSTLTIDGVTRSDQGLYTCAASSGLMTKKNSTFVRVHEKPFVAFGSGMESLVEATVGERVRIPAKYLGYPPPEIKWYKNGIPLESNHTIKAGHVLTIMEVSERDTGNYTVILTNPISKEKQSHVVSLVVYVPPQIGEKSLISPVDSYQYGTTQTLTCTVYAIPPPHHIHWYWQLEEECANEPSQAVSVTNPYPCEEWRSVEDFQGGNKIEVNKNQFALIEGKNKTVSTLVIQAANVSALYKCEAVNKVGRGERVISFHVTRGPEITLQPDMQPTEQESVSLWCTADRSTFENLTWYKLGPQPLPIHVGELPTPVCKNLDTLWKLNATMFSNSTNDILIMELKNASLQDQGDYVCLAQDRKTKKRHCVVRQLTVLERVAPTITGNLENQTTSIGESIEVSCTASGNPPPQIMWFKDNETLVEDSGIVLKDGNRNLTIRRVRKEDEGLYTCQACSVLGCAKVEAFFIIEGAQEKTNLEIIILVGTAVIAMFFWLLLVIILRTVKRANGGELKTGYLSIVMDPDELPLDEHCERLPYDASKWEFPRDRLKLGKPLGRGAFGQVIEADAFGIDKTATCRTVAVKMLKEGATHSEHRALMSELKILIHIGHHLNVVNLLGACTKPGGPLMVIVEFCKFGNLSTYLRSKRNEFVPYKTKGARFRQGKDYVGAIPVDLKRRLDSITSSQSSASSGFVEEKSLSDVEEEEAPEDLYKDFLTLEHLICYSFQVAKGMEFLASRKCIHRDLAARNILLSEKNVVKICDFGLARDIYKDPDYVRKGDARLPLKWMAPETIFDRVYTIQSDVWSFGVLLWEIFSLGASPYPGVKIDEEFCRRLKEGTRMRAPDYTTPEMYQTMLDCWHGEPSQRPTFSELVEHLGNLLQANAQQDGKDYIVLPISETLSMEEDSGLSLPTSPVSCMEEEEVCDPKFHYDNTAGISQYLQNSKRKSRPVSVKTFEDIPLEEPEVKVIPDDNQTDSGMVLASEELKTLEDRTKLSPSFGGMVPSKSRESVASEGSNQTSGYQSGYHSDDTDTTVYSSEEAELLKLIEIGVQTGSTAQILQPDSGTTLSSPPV
Protocol: as §1

[13] = target: EGFR (Homo sapiens (Human), UniProt P00533); assay: as above; type: biochemical; details: 1 h
Protocol: as §1

[14] = target: VEGFR-1 (Homo sapiens (Human), UniProt P17948); assay: as above; type: biochemical; details: 1 h
Sequence of VEGFR-1 (P17948 27-1338, species assumed): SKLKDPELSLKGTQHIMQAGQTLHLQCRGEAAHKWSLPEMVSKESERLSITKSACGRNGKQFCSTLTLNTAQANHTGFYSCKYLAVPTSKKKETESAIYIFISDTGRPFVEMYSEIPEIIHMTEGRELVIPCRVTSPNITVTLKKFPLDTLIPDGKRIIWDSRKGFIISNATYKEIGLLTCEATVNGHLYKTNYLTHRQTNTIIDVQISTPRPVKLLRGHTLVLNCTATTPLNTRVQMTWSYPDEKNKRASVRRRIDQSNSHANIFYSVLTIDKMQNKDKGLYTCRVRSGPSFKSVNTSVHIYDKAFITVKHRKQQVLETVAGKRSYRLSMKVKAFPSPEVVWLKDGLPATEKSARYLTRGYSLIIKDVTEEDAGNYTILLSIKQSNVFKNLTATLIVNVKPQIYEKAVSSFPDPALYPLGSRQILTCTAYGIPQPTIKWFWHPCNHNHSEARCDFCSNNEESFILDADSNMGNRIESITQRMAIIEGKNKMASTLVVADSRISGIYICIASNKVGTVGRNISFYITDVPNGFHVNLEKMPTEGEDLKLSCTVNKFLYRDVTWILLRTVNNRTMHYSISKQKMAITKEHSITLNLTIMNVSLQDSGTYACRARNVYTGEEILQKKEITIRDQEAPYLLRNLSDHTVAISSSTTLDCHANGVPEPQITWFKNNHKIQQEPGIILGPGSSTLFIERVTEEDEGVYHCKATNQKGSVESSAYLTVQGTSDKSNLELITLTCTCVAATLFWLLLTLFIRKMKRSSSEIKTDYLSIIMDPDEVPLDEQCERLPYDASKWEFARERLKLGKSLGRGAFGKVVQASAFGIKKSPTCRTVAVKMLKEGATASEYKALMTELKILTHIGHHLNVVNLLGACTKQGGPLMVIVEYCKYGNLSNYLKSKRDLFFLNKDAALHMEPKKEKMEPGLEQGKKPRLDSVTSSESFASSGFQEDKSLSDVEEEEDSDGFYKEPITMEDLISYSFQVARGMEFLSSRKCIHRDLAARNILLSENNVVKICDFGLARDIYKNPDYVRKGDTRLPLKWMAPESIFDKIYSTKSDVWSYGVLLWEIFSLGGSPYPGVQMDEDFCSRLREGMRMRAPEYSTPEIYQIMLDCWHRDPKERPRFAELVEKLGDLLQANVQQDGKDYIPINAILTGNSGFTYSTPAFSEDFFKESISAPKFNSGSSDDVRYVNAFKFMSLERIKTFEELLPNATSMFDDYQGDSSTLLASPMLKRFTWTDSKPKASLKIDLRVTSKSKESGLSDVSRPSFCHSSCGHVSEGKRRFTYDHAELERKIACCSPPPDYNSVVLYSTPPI
Protocol: as §1

[15] = system: human gastric cancer SNU-16 subcutaneously transplanted tumor; assay: Growth of subcutaneously transplanted tumor in human gastric cancer SNU-16 nude mice; type: in vivo
Protocol: The human gastric cancer SNU-16 cell strain was preserved in our laboratory.
S10 groups (30 mg/kg and 10 mg/kg) were orally administered once a day for 21 days; AZD4547 group (10 mg/kg) was administered orally once a day for 21 days; solvent control group was given the same amount of water for injection.

With `CNC(=O)c1cccc2cc(Oc3ccnc(NC(=O)c4ccc(N5C[C@@H](C)N[C@@H](C)C5)cc4)c3)ccc12` [Compound S10] the pIC50 [1] was 8.21, the inhibition at 0.01 µM ([1]; 10 nM, 72 h, read-out: Inhibition ratio (%)) was 59.6% and the inhibition at 0.1 µM ([1]; 100 nM, 72 h, read-out: Inhibition ratio (%)) was 62.1%. The inhibition at 1 µM ([1]; 1000 nM, 72 h, read-out: Inhibition ratio (%)) was 59.7%, the bioavailability ([2]; oral, intragastric 10 mg/kg vs intravenous 5 mg/kg) was 79.6% and the AUC(0-t) ([2]; po, intragastric 10 mg/kg) was 3430 ng·h/mL. The Cmax ([2]; po, intragastric 10 mg/kg) was 399 ng/mL, the Tmax ([2]; po, intragastric 10 mg/kg) was 4.5 h and the half-life ([2]; po, intragastric 10 mg/kg) was 3.55 h. The clearance ([2]; intravenous 5 mg/kg) was 40.8 mL/min/kg, the half-life ([2]; intravenous 5 mg/kg) was 3.69 h and the Vd ([2]; intravenous 5 mg/kg, read-out: Vss) was 11.3 L/kg. The “Body weight (g) d0” value ([3]; 2.5 mg/kg po qd/14, d0) was 19.8 g, the “TV (mm^3, mean SD) d0” value ([3]; 2.5 mg/kg po qd/14, d0) was 157 ± 43 mm^3 and the “Body weight (g) d14” value ([3]; 2.5 mg/kg po qd/14, d14) was 21.8 g. The “RTV (mean SD)” value ([3]; 2.5 mg/kg po qd/14, d14) was 8.36 ± 2.17, the “T/C (%)” value ([3]; 2.5 mg/kg po qd/14, d14) was 40.19% and 40% and the “TV (mm^3, mean SD) d14” value ([3]; 2.5 mg/kg po qd/14, d14) was 1287 ± 412 mm^3. The “Body weight (g) d0” value ([3]; 5 mg/kg po qd/14, d0) was 19.0 g, the “TV (mm^3, mean SD) d0” value ([3]; 5 mg/kg po qd/14, d0) was 154 ± 53 mm^3 and the “Body weight (g) d14” value ([3]; 5 mg/kg po qd/14, d14) was 21.5 g. The “RTV (mean SD)” value ([3]; 5 mg/kg po qd/14, d14) was 3.57 ± 0.91, the “T/C (%)” value ([3]; 5 mg/kg po qd/14, d14) was 17.18% and 17% and the “TV (mm^3, mean SD) d14” value ([3]; 5 mg/kg po qd/14, d14) was 524 ± 122 mm^3. For the same compound, the “Body weight (g) d0” value ([3]; 10 mg/kg po qd/14, d0) was 19.9 g, the “TV (mm^3, mean SD) d0” value ([3]; 10 mg/kg po qd/14, d0) was 155 ± 45 mm^3 and the “Body weight (g) d14” value ([3]; 10 mg/kg po qd/14, d14) was 23.0 g. For the same compound, the “RTV (mean SD)” value ([3]; 10 mg/kg po qd/14, d14) was 2.09 ± 0.77, the “T/C (%)” value ([3]; 10 mg/kg po qd/14, d14) was 10.03% and 10% and the “TV (mm^3, mean SD) d14” value ([3]; 10 mg/kg po qd/14, d14) was 338 ± 223 mm^3. The “Condition and mortality of animals during the experiment” value ([3]; 10, 5 and 2.5 mg/kg po once a day for two weeks) was “the animals in each group were in good condition and there was no mice died”, the “Inhibition ratio (%) c-Met” value ([4]; 10 nM) was 11.2% and the “Inhibition ratio (%) c-Met” value ([4]; 1000 nM) was 29.5%. The “Inhibition ratio (%) c-Src” value ([5]; 10 nM) was 20.3%, the “Inhibition ratio (%) c-Src” value ([5]; 1000 nM) was 43.6% and the “Inhibition ratio (%) EPH-A2” value ([6]; 10 nM) was 4.2%. For the same compound, the “Inhibition ratio (%) EPH-A2” value ([6]; 1000 nM) was 7.7%, the “Inhibition ratio (%) ABL” value ([7]; 10 nM) was 17.5% and the “Inhibition ratio (%) ABL” value ([7]; 1000 nM) was 28.8%. The “Inhibition ratio (%) PDGFR-α” value ([8]; 10 nM) was 50.2%, the “Inhibition ratio (%) PDGFR-α” value ([8]; 1000 nM) was 87.1% and the “Inhibition ratio (%) RET” value ([9]; 10 nM) was 13.2%. For the same compound, the “Inhibition ratio (%) RET” value ([9]; 1000 nM) was 90.5%, the “Inhibition ratio (%) ErbB2” value ([10]; 10 nM) was 17.4% and the “Inhibition ratio (%) ErbB2” value ([10]; 1000 nM) was 22.2%. The “Inhibition ratio (%) ErbB4” value ([11]; 10 nM) was 2.0%, the “Inhibition ratio (%) ErbB4” value ([11]; 1000 nM) was 7.0% and the “Inhibition ratio (%) VEGFR-2” value ([12]; 10 nM) was 90.4%. The “Inhibition ratio (%) VEGFR-2” value ([12]; 1000 nM) was 98.7%, the “Inhibition ratio (%) EGFR” value ([13]; 10 nM) was 9.6% and the “Inhibition ratio (%) EGFR” value ([13]; 1000 nM) was 11.3%. The “Inhibition ratio (%) VEGFR-1” value ([14]; 10 nM) was 75.6%, the “Inhibition ratio (%) VEGFR-1” value ([14]; 1000 nM) was 100.0% and the “Body weight (g) d0” value ([15]; 10 mg/kg po qd/21, d0) was 19.9 g. For the same compound, the “TV (mm^3, mean ± SD) d0” value ([15]; 10 mg/kg po qd/21, d0) was 106 ± 33 mm^3, the “Body weight (g) d21” value ([15]; 10 mg/kg po qd/21, d21) was 21.4 g and the “RTV (mean ± SD)” value ([15]; 10 mg/kg po qd/21, d21) was 3.48 ± 2.29. For the same compound, the “T/C (%)” value ([15]; 10 mg/kg po qd/21, d21) was 25.35% and 25%, the “TV (mm^3, mean ± SD) d21” value ([15]; 10 mg/kg po qd/21, d21) was 322 ± 107 mm^3 and the “Body weight change, condition and mortality of mice during the experiment” value ([15]; 30 mg/kg po once a day for 21 days) was “average weight of mice in the S10 group (30 mg/kg) was decreased, but the mice were still in good condition and no mice died”. The “Body weight (g) d0” value ([15]; 30 mg/kg po qd/21, d0) was 21.2 g, the “TV (mm^3, mean ± SD) d0” value ([15]; 30 mg/kg po qd/21, d0) was 106 ± 22 mm^3 and the “Body weight (g) d21” value ([15]; 30 mg/kg po qd/21, d21) was 17.0 g. The “RTV (mean ± SD)” value ([15]; 30 mg/kg po qd/21, d21) was 1.19 ± 0.38, the “T/C (%)” value ([15]; 30 mg/kg po qd/21, d21) was 8.67% and 9% and the “TV (mm^3, mean ± SD) d21” value ([15]; 30 mg/kg po qd/21, d21) was 125 ± 47 mm^3.
